Reference: US20250230147A1, “LACTAMS AS CBL-B INHIBITORS” (Genentech, Inc., priority 2021, published 2025)
Structures can show the parent of a compound that is named as a salt.

What was measured:
Cbl-b = Cbl-b (Homo sapiens (Human), UniProt Q13191); assay: Cbl-b LCK Ub TR-FRET assay (Cbl-b Lck HTRF); type: biochemical
In short: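 Biotin-Cbl-b preincubated with compound (10-point 3-fold series) 60 min, then His-LCK with 1 mM ATP (2× mixture) added for 90 min at room temperature. Ubiquitination detected by TR-FRET using HA-ubiquitin/UBE2D2 adduct, anti-HA-D2 and streptavidin-Eu; IC50 normalised to no-LCK and DMSO controls.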

c-Cbl = c-Cbl (Homo sapiens (Human), UniProt P22681); assay: C-Cbl LCK Ub TR-FRET assay (c-cbl Lck HTRF); type: biochemical; conditions: for (fold-selectivity): C-cbl Lck HTRF IC50 relative to Cbl-b Lck HTRF IC50
Sequence of c-Cbl (P22681 47-435): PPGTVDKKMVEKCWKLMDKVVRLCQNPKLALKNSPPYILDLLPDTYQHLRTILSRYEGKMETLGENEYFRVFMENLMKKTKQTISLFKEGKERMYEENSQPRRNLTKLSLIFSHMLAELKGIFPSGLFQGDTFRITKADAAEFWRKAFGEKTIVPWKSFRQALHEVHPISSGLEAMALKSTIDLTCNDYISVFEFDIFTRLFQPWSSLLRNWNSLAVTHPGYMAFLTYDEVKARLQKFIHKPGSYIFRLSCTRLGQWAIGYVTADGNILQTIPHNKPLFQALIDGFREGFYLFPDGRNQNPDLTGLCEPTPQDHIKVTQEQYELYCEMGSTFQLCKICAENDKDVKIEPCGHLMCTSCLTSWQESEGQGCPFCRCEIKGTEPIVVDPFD
In short: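 After the ubiquitination reaction, detection mixture was added and plates incubated 20 min at room temperature before reading. IC50 values were calculated with wells lacking LCK as the low control and DMSO as the high control.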

Sequence of Cbl-b (Q13191 40-426): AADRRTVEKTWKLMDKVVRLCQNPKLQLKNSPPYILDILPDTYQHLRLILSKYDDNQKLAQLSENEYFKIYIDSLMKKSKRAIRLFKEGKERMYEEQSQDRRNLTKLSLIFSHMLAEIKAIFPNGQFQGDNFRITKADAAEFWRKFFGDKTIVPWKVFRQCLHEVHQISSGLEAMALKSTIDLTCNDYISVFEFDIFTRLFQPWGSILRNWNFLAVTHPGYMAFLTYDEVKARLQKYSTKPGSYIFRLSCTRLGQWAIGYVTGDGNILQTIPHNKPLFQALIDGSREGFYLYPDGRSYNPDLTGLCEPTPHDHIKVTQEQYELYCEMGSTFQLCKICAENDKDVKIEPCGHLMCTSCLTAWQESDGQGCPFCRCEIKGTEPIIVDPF

SMILES	IC50 (Cbl-b) [nM]	IC50 (c-Cbl) [nM]	(fold-selectivity) (c-Cbl)	fold of selectivity (Cbl-b; Cbl-b over c-Cbl, Lck HTRF IC50) [x]
Cn1cnnc1CC1(c2cc(NCC(N)=O)nc(N3Cc4c(cccc4C(F)(F)F)C3=O)c2)COC1 [Compound 491, 2-((4-(3-((4-methyl-4H-1,2,4-triazol-3-yl)methyl)oxetan-3-yl)-6-(1-oxo-4-(trifluoromethyl)isoindolin-2-yl)pyridin-2-yl)amino)acetamide]	8600	20000	(2.3x)	–
Cn1cnnc1CC1(c2cc(NC3CCCC3)nc(N3Cc4c(cc(CNC5(C)CCC5)cc4C(F)(F)F)C3=O)c2)CCC1 [Compound 295, 2-(6-(cyclopentylamino)-4-(1-((4-methyl-4H-1,2,4-triazol-3-yl)methyl)cyclobutyl)pyridin-2-yl)-6-(((1-methylcyclobutyl)amino)methyl)-4-(trifluoromethyl)isoindolin-1-one]	44	33	(0.75x)	–
CCN1CCN(Cc2cc3c(c(C(F)(F)F)c2)CN(c2cccc(C4([C@@H](F)c5nncn5C)CC(F)(F)C4)c2)C3=O)[C@@H](C(C)C)C1 [Compound 460, 2-(3-(3,3-difluoro-1-((R)-fluoro(4-methyl-4H-1,2,4-triazol-3-yl)methyl)cyclobutyl)phenyl)-6-(((S)-4-ethyl-2-isopropylpiperazin-1-yl)methyl)-4-(trifluoromethyl)isoindolin-1-one]	14	8.4	(0.58x)	–
CC(C)NCc1cc2c(c(C(F)(F)F)c1)CN(c1cccc(C3(Cc4nncn4C)CC(F)(F)C3)c1)C2=O [Compound 415, 2-(3-(3,3-difluoro-1-((4-methyl-4H-1,2,4-triazol-3-yl)methyl)cyclobutyl)phenyl)-6-((isopropylamino)methyl)-4-(trifluoromethyl)isoindolin-1-one]	16	14	(0.91x)	–
Cn1cnnc1CC1(c2cc(NC34CCC(C3)C4)nc(N3Cc4c(cccc4C(F)(F)F)C3=O)c2)COC1 [Compound 493, 2-(6-(bicyclo[2.1.1]hexan-1-ylamino)-4-(3-((4-methyl-4H-1,2,4-triazol-3-yl)methyl)oxetan-3-yl)pyridin-2-yl)-4-(trifluoromethyl)isoindolin-1-one]	630	4500	(6.9x)	–
CC(C)[C@H]1CN(CCF)CCN1Cc1cc2c(c(C(F)(F)F)c1)CN(c1cccc(C3([C@@H](F)c4nncn4C)COC3)c1)C2=O [Compound 197, 2-(3-(3-((R)-fluoro(4-methyl-4H-1,2,4-triazol-3-yl)methyl)oxetan-3-yl)phenyl)-6-(((S)-4-(2-fluoroethyl)-2-isopropylpiperazin-1-yl)methyl)-4-(trifluoromethyl)isoindolin-1-one]	8	13	1.6x	–
Cn1cnnc1CC1(c2cc(-c3ccccc3)nc(N3Cc4c(cc(CNC5(C)CCC5)cc4C(F)(F)F)C3=O)c2)CCC1 [Compound 324, 2-(4-(1-((4-methyl-4H-1,2,4-triazol-3-yl)methyl)cyclobutyl)-6-phenylpyridin-2-yl)-6-(((1-methylcyclobutyl)amino)methyl)-4-(trifluoromethyl)isoindolin-1-one]	12	7.6	(0.66x)	–
CC(C)[C@H]1CN(C)CCN1Cc1cc2c(c(C(F)(F)F)c1)CN(c1cccc(C3([C@@H](F)c4nc(F)cn4C)COC3)c1)C2=O [Compound 269, 2-(3-(3-((R)-fluoro(4-fluoro-1-methyl-1H-imidazol-2-yl)methyl)oxetan-3-yl)phenyl)-6-(((S)-2-isopropyl-4-methylpiperazin-1-yl)methyl)-4-(trifluoromethyl)isoindolin-1-one]	210	470	(2.3x)	–
CC[C@H](C)NCc1cc2c(c(C(F)(F)F)c1)CN(c1cccc(C3(Cc4nncn4C)CC(F)(F)C3)c1)C2=O [Compound 371, (S)-6-((sec-butylamino)methyl)-2-(3-(3,3-difluoro-1-((4-methyl-4H-1,2,4-triazol-3-yl)methyl)cyclobutyl)phenyl)-4-(trifluoromethyl)isoindolin-1-one]	15	14	(0.94x)	–
Cn1cnnc1[C@H](F)C1(c2cccc(N3Cc4c(cc(CNCC5CC5)cc4C(F)(F)F)C3=O)c2)CC(F)(F)C1 [Compound 449, (R)-6-(((cyclopropylmethyl)amino)methyl)-2-(3-(3,3-difluoro-1-(fluoro(4-methyl-4H-1,2,4-triazol-3-yl)methyl)cyclobutyl)phenyl)-4-(trifluoromethyl)isoindolin-1-one]	20	21	(1.1x)	–
Cn1cnnc1CC1(c2cccc(N3Cc4c(cc(CNC5(C)CCC5)cc4C(F)F)C3=O)c2)CC(F)(F)C1 [Compound 250, 2-(3-(3,3-difluoro-1-((4-methyl-4H-1,2,4-triazol-3-yl)methyl)cyclo-butyl)phenyl)-4-(difluoromethyl)-6-(((1-methylcyclobutyl)amino)methyl)isoindolin-1-one]	12	9.3	(0.77x)	–
COC1(C)CN(Cc2cc3c(c(C(F)(F)F)c2)CN(c2cccc(C4([C@@H](F)c5nncn5C)COC4)c2)C3=O)C1 [Compound 179, (R)-2-(3-(3-(fluoro(4-methyl-4H-1,2,4-triazol-3-yl)methyl)oxetan-3-yl)phenyl)-6-((3-methoxy-3-methylazetidin-1-yl)methyl)-4-(trifluoromethyl)isoindolin-1-one]	54	110	2.1x	–
CC(C)N(C)Cc1cc2c(c(C(F)(F)F)c1)CN(c1cccc(C3([C@H](F)c4nncn4C)CC(F)(F)C3)c1)C2=O [Compound 420, (S)-2-(3-(3,3-difluoro-1-(fluoro(4-methyl-4H-1,2,4-triazol-3-yl)methyl)cyclobutyl)phenyl)-6-((isopropyl(methyl)amino)methyl)-4-(trifluoromethyl)isoindolin-1-one]	240	220	(0.91x)	–
Cn1cnnc1CC1(c2cccc(N3Cc4c(cc(CNC5(C)CCCC5)cc4C(F)(F)F)C3=O)c2)CC(F)(F)C1 [Compound 344, 2-(3-(3,3-difluoro-1-((4-methyl-4H-1,2,4-triazol-3-yl)methyl)cyclobutyl)phenyl)-6-(((1-methylcyclopentyl)amino)methyl)-4-(trifluoromethyl)isoindolin-1-one formate]	16	13	–	–
C[C@@H](N)c1cc2c(c(C(F)(F)F)c1)CN(c1cccc(C3(Cc4nncn4C)CC(F)(F)C3)c1)C2=O [Compound 385, (R)-6-(1-aminoethyl)-2-(3-(3,3-difluoro-1-((4-methyl-4H-1,2,4-triazol-3-yl)methyl)cyclobutyl)phenyl)-4-(trifluoromethyl)isoindolin-1-one]	24	22	(0.93x)	–
CC(C)[C@H]1CN(CC(F)(F)F)CCN1Cc1cc2c(c(C(F)(F)F)c1)CN(c1cccc(C3([C@H](F)c4nncn4C)COC3)c1)C2=O [Compound 201, 2-(3-(3-((S)-fluoro(4-methyl-4H-1,2,4-triazol-3-yl)methyl)oxetan-3-yl)phenyl)-6-(((S)-2-isopropyl-4-(2,2,2-trifluoroethyl)piperazin-1-yl)methyl)-4-(trifluoromethyl)isoindolin-1-one]	220	3000	13 x	13.6
C[C@@H]1COCCN1c1cc(C2(Cc3nncn3C)COC2)cc(N2Cc3c(cccc3C(F)(F)F)C2=O)n1 [Compound 490, (R)-2-(4-(3-((4-methyl-4H-1,2,4-triazol-3-yl)methyl)oxetan-3-yl)-6-(3-methylmorpholino)pyridin-2-yl)-4-(trifluoromethyl)isoindolin-1-one]	3300	3500	(1.0x)	–
CCCCc1cc(C2(Cc3nncn3C)CCC2)cc(N2Cc3c(cc(CNC4(C)CCC4)cc3C(F)(F)F)C2=O)n1 [Compound 346, 2-(6-butyl-4-(1-((4-methyl-4H-1,2,4-triazol-3-yl)methyl)cyclobutyl)pyridin-2-yl)-6-(((1-methylcyclobutyl)amino)methyl)-4-(trifluoromethyl)isoindolin-1-one]	11	10	(0.92x)	–
Cn1cnnc1[C@@H](F)C1(c2cccc(N3Cc4c(cc(CN5CC(C)(CF)C5)cc4C(F)(F)F)C3=O)c2)COC1 [Compound 77, (S)-2-(3-(3-(fluoro(4-methyl-4H-1,2,4-triazol-3-yl)methyl)oxetan-3-yl)phenyl)-6-((3-(fluoromethyl)-3-methylazetidin-1-yl)methyl)-4-(trifluoromethyl)isoindolin-1-one]	210	370	1.8x	–
Cn1cnnc1[C@@H](F)C1(c2cccc(N3Cc4c(cc(CN)cc4C(F)(F)F)C3=O)c2)CC(F)(F)C1.O=CO [Compound 394, (S)-6-(aminomethyl)-2-(3-(3,3-difluoro-1-(fluoro(4-methyl-4H-1,2,4-triazol-3-yl)methyl)cyclobutyl)phenyl)-4-(trifluoromethyl)isoindolin-1-one formate]	120	160	(1.3x)	–
Cn1cnnc1[C@H](F)C1(c2cccc(N3Cc4c(Cl)cccc4C3=O)c2)COC1 [Compound 204, (R)-4-chloro-2-(3-(3-(fluoro(4-methyl-4H-1,2,4-triazol-3-yl)methyl)oxetan-3-yl)phenyl)isoindolin-1-one]	210	660	3.1x	–
